The source of these data is US20240101531A1, “PYRIDINAMINE DERIVATIVES AND THEIR USE AS POTASSIUM CHANNEL MODULATORS” (Xenon Pharmaceuticals Inc., priority 2022, published 2024).

Structures are written as SMILES. Where a name gives a salt, the structure may show the parent alone.

The assay has as its target human KV7.2/KV7.3 (Homo sapiens (Human), UniProt O43525+O43526). Nature of the assay: Potassium flux assay (IPG-2 AM dye). It is filed as cell-based. Conditions: TREX HEK 293 or HEK 293 cells expressing human KV7.2/KV7.3; arithmetic mean values. In a few lines: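 EC50 from 16 concentrations (2-fold dilutions, top 30 μM), scaled between DMSO baseline and a known KV7.x modulator maximum. Signal is IPG-2 AM fluorescence (ex 530/em 558 nm) after 10 mM KCl challenge buffer addition, following 20 min room-temperature compound exposure of HEK 293 or TREX HEK 293 cells stably expressing human KV7.2/KV7.3.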
For orientation: EC50 means the concentration at which the effect is half-maximal. Regarding `Cn1cc(CNc2ccc3c(Nc4ccc(Cl)nc4)nccc3c2)cn1` [Example 244, N′-(6-chloropyridin-3-yl)-N^6-((1-methyl-1H-pyrazol-4-yl)methyl)isoquinoline-1,6-diamine], the EC50 lay in the range of 1000 to 10000 nM.

`Cn1cc(COc2ccc3c(Nc4cnc(Cl)c(O)c4)nccc3c2)cn1` [Example 374, 2-chloro-5-((6-((1-methyl-1H-pyrazol-4-yl)methoxy)isoquinolin-1-yl)amino)pyridin-3-ol]: the EC50 was below 1000 nM. In the case of `Clc1ncc(Nc2nccc3cc(OCCc4cn[nH]c4)ccc23)cn1` [Example 390, 6-(2-(1H-pyrazol-4-yl)ethoxy)-N-(2-chloropyrimidin-5-yl)isoquinolin-1-amine formate], the EC50 is below 1000 nM.

`Clc1ccc(Nc2nccc3cc(OCc4cnn5c4OCCC5)ccc23)cn1` [Example 84, N-(6-chloropyridin-3-yl)-6-((6,7-dihydro-5H-pyrazolo[5,1-b][1,3]oxazin-3-yl)methoxy)isoquinolin-1-amine]: the EC50 fell in the range of 10000 to 30000 nM. As to `COc1ncc(Nc2nccc3cc(OCC4(C#N)CC4)ccc23)cn1` [Example 373, 1-(((1-((2-methoxypyrimidin-5-yl)amino)isoquinolin-6-yl)oxy)methyl)cyclopropane-1-carbonitrile], the EC50 was below 1000 nM. For `Cc1ncc(Nc2nccc3cc(OCC4CC4)cnc23)cn1` [Example 257, 3-(cyclopropylmethoxy)-N-(2-methylpyrimidin-5-yl)-1,7-naphthyridin-8-amine], the EC50 lay within 1000 to 10000 nM. The value for `CC[C@@H](OC)c1ccc2c(Nc3ccc(Cl)nc3)nccc2c1` [Example 130, (R)—N-(6-chloropyridin-3-yl)-6-(1-methoxypropyl)isoquinolin-1-amine] was 10000 to 30000 nM; that for `NC(COc1ccc2c(Nc3ccc(Cl)nc3)nccc2c1)C(F)(F)F` (stereo not drawn) [Example 226, 6-(2-amino-3,3,3-trifluoropropoxy)-N-(6-chloropyridin-3-yl)isoquinolin-1-amine] was 1000 to 10000 nM; that for `COc1cnc2c(Nc3ccc(Cl)nc3)nccc2c1` [Example 399, N-(6-chloropyridin-3-yl)-3-methoxy-1,7-naphthyridin-8-amine] was 1000 to 10000 nM. The value for `Cc1oncc1COc1ccc2c(Nc3ccc(Cl)nc3)nccc2c1` [Example 156, N-(6-chloropyridin-3-yl)-6-((5-methylisoxazol-4-yl)methoxy)isoquinolin-1-amine] was below 1000 nM. As to `FC1(COc2ccc3c(Nc4cncnc4)nccc3c2)CC1` [Example 49, 6-((1-fluorocyclopropyl)methoxy)-N-(pyrimidin-5-yl)isoquinolin-1-amine], the EC50 fell in the range of 1000 to 10000 nM. The value for `Cn1nc(COc2ccc3c(Nc4ccc(Cl)nc4)nccc3c2)cc1C#N` [Example 62, 3-(((1-((6-chloropyridin-3-yl)amino)isoquinolin-6-yl)oxy)methyl)-1-methyl-1H-pyrazole-5-carbonitrile] was 1000 to 10000 nM; that for `Clc1ccc(Nc2nccc3cc(COc4cn[nH]c4)ccc23)cn1` [Example 304, 6-(((1H-pyrazol-4-yl)oxy)methyl)-N-(6-chloropyridin-3-yl)isoquinolin-1-amine] was 1000 to 10000 nM; that for `Clc1ccc(Nc2nccc3cc(OCCN4CCOCC4)ccc23)cn1` [Example 201, N-(6-chloropyridin-3-yl)-6-(2-morpholinoethoxy)isoquinolin-1-amine] was 1000 to 10000 nM.

For the compound `O=S1(=O)CC[C@@H](Oc2ccc3c(Nc4ccc(Cl)nc4)nccc3c2)C1` [Example 261, (R)-3-((1-((6-chloropyridin-3-yl)amino)isoquinolin-6-yl)oxy)tetrahydrothiophene 1,1-dioxide], the EC50 was 1000 to 10000 nM. With `FC1(COc2ccc3c(Nc4cnc(Cl)nc4)nccc3c2)COC1` [Example 56, N-(2-chloropyrimidin-5-yl)-6-((3-fluorooxetan-3-yl)methoxy)isoquinolin-1-amine] the figure was below 1000 nM; with `CC(C)(C)OC(=O)N[C@H]1CCC[C@@H](Oc2ccc3c(Nc4cnc(Cl)nc4)nccc3c2)C1` [Example 356, tert-butyl ((1S,3R)-3-((1-((2-chloropyrimidin-5-yl)amino)isoquinolin-6-yl)oxy)cyclohexyl)carbamate], below 1000 nM. On to `CS(=O)(=O)C1(COc2ccc3c(Nc4ccc(Cl)nc4)nccc3c2)CCC1` [Example 287, N-(6-chloropyridin-3-yl)-6-((1-(methylsulfonyl)cyclobutyl)methoxy)isoquinolin-1-amine], for which the EC50 lay within 1000 to 10000 nM.

In the case of `C[C@H]1COCCN1CCOc1ccc2c(Nc3ccc(Cl)nc3)nccc2c1` [Example 321, (S)-N-(6-chloropyridin-3-yl)-6-(2-(3-methylmorpholino)ethoxy)isoquinolin-1-amine], the EC50 was in the range of 1000 to 10000 nM. The value for `N#CC1(COc2ccc3c(Nc4ccc(Cl)nc4)nccc3c2)CC(F)(F)C1` [Example 234, 1-(((1-((6-chloropyridin-3-yl)amino)isoquinolin-6-yl)oxy)methyl)-3,3-difluorocyclobutane-1-carbonitrile] was below 1000 nM. The value for `N#CC1(COc2ccc3c(Nc4cnc(Cl)nc4)nccc3c2)CCC1` [Example 369, 1-(((1-((2-chloropyrimidin-5-yl)amino)isoquinolin-6-yl)oxy)methyl)cyclobutane-1-carbonitrile] was below 1000 nM; that for `N#CC1(COc2ccc3c(Nc4cnc(Cl)nc4)nccc3c2)CC12CC2` (stereo not drawn) [Example 349, 1-(((1-((2-chloropyrimidin-5-yl)amino)isoquinolin-6-yl)oxy)methyl)spiro[2.2]pentane-1-carbonitrile] was below 1000 nM. On to `Clc1ccc(Nc2nccc3ccccc23)cn1` [Example 33, N-(6-chloropyridin-3-yl)isoquinolin-1-amine], for which the EC50 lay within 1000 to 10000 nM.

`C[C@@H]1CN(CCOc2ccc3c(Nc4ccc(Cl)nc4)nccc3c2)C[C@H](C)O1` [Example 319, N-(6-chloropyridin-3-yl)-6-(2-((2S,6R)-2,6-dimethylmorpholino)ethoxy)isoquinolin-1-amine]: the EC50 fell in the range of 1000 to 10000 nM. With `Clc1ccc(Nc2nccc3cc(OCc4ncco4)ccc23)cn1` [Example 211, N-(6-chloropyridin-3-yl)-6-(oxazol-2-ylmethoxy)isoquinolin-1-amine] the figure was 1000 to 10000 nM; with `Cc1ccc(Nc2nccc3cc(OCC4CC4)cnc23)cn1` [Example 256, 3-(cyclopropylmethoxy)-N-(6-methylpyridin-3-yl)-1,7-naphthyridin-8-amine], 1000 to 10000 nM; with `FC1(COc2ccc3c(Nc4ccc(Cl)nc4)nccc3c2)CCC1` [Example 141, N-(6-chloropyridin-3-yl)-6-((1-fluorocyclobutyl)methoxy)isoquinolin-1-amine], 1000 to 10000 nM. With `Cc1csc2c(Nc3ccc(Cl)nc3)nccc12` [Example 17, N-(6-chloropyridin-3-yl)-3-methylthieno[2,3-c]pyridin-7-amine] the figure was 1000 to 10000 nM. With `CN1CC(F)(COc2ccc3c(Nc4ccc(Cl)nc4)nccc3c2)C1` [Example 128, N-(6-chloropyridin-3-yl)-6-((3-fluoro-1-methylazetidin-3-yl)methoxy)isoquinolin-1-amine] the figure was 10000 to 30000 nM; with `N#CC1(COc2ccc3c(Nc4ccc(Cl)nc4)nccc3c2)COC1` [Example 85, 3-(((1-((6-chloropyridin-3-yl)amino)isoquinolin-6-yl)oxy)methyl)oxetane-3-carbonitrile], below 1000 nM.

Regarding `Cc1nn(C)cc1[C@@H](C)Oc1ccc2c(Nc3ccc(Cl)nc3)nccc2c1` [Example 174, (R)—N-(6-chloropyridin-3-yl)-6-(1-(1,3-dimethyl-1H-pyrazol-4-yl)ethoxy)isoquinolin-1-amine], the EC50 lay within 1000 to 10000 nM. The value for `COCC1(COc2ccc3c(Nc4ccc(Cl)nc4)nccc3c2)COC1` [Example 306, N-(6-chloropyridin-3-yl)-6-((3-(methoxymethyl)oxetan-3-yl)methoxy)isoquinolin-1-amine] was below 1000 nM.

Turning to `O[C@H]1CC[C@H](Oc2ccc3c(Nc4ccc(Cl)nc4)nccc3c2)CC1` [Example 350, (1r,4r)-4-((1-((6-chloropyridin-3-yl)amino)isoquinolin-6-yl)oxy)cyclohexan-1-ol], the EC50 was 1000 to 10000 nM.

Take `CC1(COc2ccc3c(Nc4cnc(Cl)c(N)c4)nccc3c2)COC1` [Example 163, 2-chloro-N^5-(6-((3-methyloxetan-3-yl)methoxy)isoquinolin-1-yl)pyridine-3,5-diamine]: the EC50 is below 1000 nM.

Take `COc1ccc2c(Nc3ccc(Cl)nc3)nccc2c1` [Example 19, N-(6-chloropyridin-3-yl)-6-methoxyisoquinolin-1-amine formate]: the EC50 fell in the range of 1000 to 10000 nM.

As to `Clc1ccc(Nc2nccc3cc(OCCC4COC4)ccc23)cn1` [Example 89, N-(6-chloropyridin-3-yl)-6-(2-(oxetan-3-yl)ethoxy)isoquinolin-1-amine], the EC50 was below 1000 nM.

With `O[C@@H]1CCC[C@H](Oc2ccc3c(Nc4ccc(Cl)nc4)nccc3c2)C1` (racemic) [Example 95, rac-(1R,3S)-3-((1-((6-chloropyridin-3-yl)amino)isoquinolin-6-yl)oxy)cyclohexan-1-ol], the EC50 was below 1000 nM.

In the case of `N=[S@@]1(=O)CCC[C@@H](COc2ccc3c(Nc4cnc(Cl)nc4)nccc3c2)C1` (relative stereo) [Example 367, trans-3-(((1-((2-chloropyrimidin-5-yl)amino)isoquinolin-6-yl)oxy)methyl)-1-iminohexahydro-1λ^6-thiopyran 1-oxide], the EC50 is below 1000 nM. The value for `O[C@H]1CC[C@@H](Oc2ccc3c(Nc4ccc(Cl)nc4)nccc3c2)C1` (racemic) [Example 102, rac-(1S,3R)-3-((1-((6-chloropyridin-3-yl)amino)isoquinolin-6-yl)oxy)cyclopentan-1-ol] was below 1000 nM.
